Reference: patent US8110528B2, “Active ingredient combinations with insecticidal properties” (Bayer Cropscience AG, priority 2006, dated 2012)

Columns and labels:
Phaedon cochleariae = Phaedon cochleariae larvae test (cabbage leaf dip); assay type: in vivo, mustard beetle (Phaedon cochleariae) larvae; details: cabbage leaves dipped
Description: (§1) The expected activity for a given combination of two active compounds can be calculated according to S. R. Colby, Weeds 15 (1967), 20-22 as follows: • If • X is the kill rate, expressed in % of the untreated control, when active compound A is applied at an application rate of m g/ha or at a concentration of m ppm, • Y is the kill rate, expressed in % of the untreated control, when active compound B is applied at an application rate of n g/ha or at a concentration of n ppm and • E is the kill rate, expressed in % of the untreated control, when active compounds A and B are applied at application rates of m and n g/ha or at a concentration of m and n ppm, then
(§2) If the actual insecticidal kill rate is greater than calculated, the kill of the combination is superadditive, i.e. there is a synergistic effect. In this case, the actual observed kill rate has to be greater than the value for the expected kill rate (E) calculated from the formula given above.
• Solvent: 7 parts by weight of dimethylformamide • Emulsifier: 2 parts by weight of alkylaryl polyglycol ether
To produce a suitable preparation of active compound, 1 part by weight of active compound is mixed with the stated amounts of solvent and emulsifier, and the concentrate is diluted with emulsifier-containing water to the desired concentration.
Cabbage leaves (Brassica oleracea) are treated by being dipped into the preparation of active compound of the desired concentration and populated with larvae of the mustard beetle (Phaedon cochleariae) while the leaves are still moist.
After the desired period of time, the kill in % is determined. 100% means that all beetle larvae have been killed; 0% means that none of the beetle larvae have been killed. The kill rates determined are entered into the Colby formula (see sheet 1).

Myzus persicae = Myzus persicae test (cabbage leaf dip); assay type: in vivo, green peach aphid (Myzus persicae); details: cabbage leaves dipped
Description: as §1, §2
• Solvent: 7 parts by weight of dimethylformamide • Emulsifier: 2 parts by weight of alkylaryl polyglycol ether […]
After the desired period of time, the kill in % is determined. […] The kill rates determined are entered into the Colby formula (see sheet 1).

## CN(Cc1ccc(Cl)nc1)C1=CC(=O)OC1 [compound (Ia)]
Phaedon cochleariae; 20 ppm
  Kill in % after 4d: 5%

## O=C1C=C(N(Cc2ccc(Cl)nc2)C2CC2)CO1 [compound (Ib)]
Myzus persicae; 0.8 ppm
  Kill in % after 6d: 25%
Phaedon cochleariae; 20 ppm
  Kill in % after 6d: 11%

## CN/C(=N\[N+](=O)[O-])NCc1cnc(Cl)s1 [clothianidin]
Myzus persicae; 0.16 ppm
  Kill in % after 6d: 35%
Phaedon cochleariae; 4 ppm
  Kill in % after 4d: 25%
  Kill in % after 6d: 21%
